Converted amounts (≈) assume the structure as drawn. Where a SMILES comes first, the peptide text is derived from it. [ ]: non-standard residue; d: D form. The star is where a group is joined. d(aIle) = CC[C@H](C)[C@@H](N)C(=O)O; dDab = NCC[C@@H](N)C(=O)O; Octanoyl = CCCCCCCC(=O)*; Dab = NCC[C@H](N)C(=O)O
Tests used:
HepG2 cells = assay: Cytotoxicity determination (CellTiter-Glo); type: cell-based; conditions: HepG2, medium without serum, 24 h, normalization to the untreated control, 1 to 128 μg/mL tested
Protocol: HepG2 cells were grown in EMEM (Sigma) supplemented with 2 mM glutamine and 10% fetal bovine serum (Fisher) at 37 °C, 5% CO2. 20′000 cells per well were seeded into clear tissue culture-treated 96-well plates and incubated for 24 h. Peptides, dissolved in DMSO, were dispensed into 96 deep well plates (TECAN D300e dispenser) and diluted to a final concentration of 1 to 128 μg/mL using fresh medium without serum. The next day, the old media were removed from the cells, and 200 μL of the prepared compound dilutions was added per well. Plates were incubated for another 24 h before assessing the cell viability using the CellTiter-Glo kit (Promega) according to the manufacturer’s protocol. IC50s were calculated after normalization to the untreated control.

[1] = test system: Gram-positive bacteria (Staphylococcus aureus, Enterococcus faecalis, Enterococcus faecium); assay: MIC, summary over Gram-positive strains; type: cell-based; conditions: at a concentration of 64 μg/mL; summary of Table 2
Protocol: (§1) All minimum inhibitory concentrations (MICs) were determined according to the Clinical and Standards Laboratory Institute (CLSI) guidelines. In brief, agar plates were inoculated from glycerol stocks and incubated overnight at 35 °C. Peptide DMSO stocks were dispensed into 96-well round-bottom plates using a TECAN D300e dispenser. Colistin sulfate (Sigma-Aldrich) was dissolved in water and serially diluted in a cation-adjusted Mueller Hinton broth (10 μL per well). Final concentrations of the test compounds were 0.06 to 64 μg/mL. Inocula were prepared by direct colony suspension in NaCl at 0.5 MacFarland, which was further diluted 200-fold in cation-adjusted Mueller Hinton broth for a target inoculum of 2 × 10^5 colony forming units (CFUs)/mL. 100 μL portion of the prepared inoculum was added to each well of the prepared plates containing the test compounds. Plates were sealed with parafilm and incubated for 20 h at 35 °C. Images of all plates were recorded, and MIC was assessed visually.

ATCC 25922 = type: cell-based, Enterococcus faecalis; conditions: ATCC 25922, 20 h
Protocol: as §1

E. faecalis ATCC 29212 = type: cell-based, Enterococcus faecalis; conditions: ATCC 29212, 20 h
Protocol: as §1

Rabbit red blood cells = assay: Hemolysis assay; type: cell-based; conditions: rabbit red blood cells in PBS, 37 °C, 1 h, absorbance at 405 nm, normalization to the Triton X-100 control; 0.25 to 128 μg/mL tested
Protocol: Peptides, dissolved in DMSO, were dispensed into 96-well round-bottom microplates using a TECAN D300e dispenser and subsequently diluted with 100 μL of PBS. PBS or 2% Triton X-100 was used as negative and positive controls, respectively. Rabbit red blood cells (BioConcept) were diluted in PBS to a final concentration of 2%, and 100 μL was added to each well of the prepared 96-well plates. The final concentration of the test compounds was 0.25 to 128 μg/mL. Plates were incubated at 37 °C for 1 h and afterward subjected to centrifugation at 1000g for 5 min. Then, 30 μL of supernatant was transferred to a new round-bottom plate, and absorbance was measured at 405 nm (TECAN Infinite F200). EC50s were calculated after blank subtraction and normalization to the Triton control.

K. pneumoniae 1228586 = type: cell-based, Klebsiella pneumoniae; conditions: 1228586, 20 h
Protocol: as §1

K. pneumoniae ATCC 13883 = type: cell-based, Klebsiella pneumoniae; conditions: ATCC 13883, 20 h
Protocol: as §1

K. pneumoniae 1227947 = type: cell-based, Klebsiella pneumoniae; conditions: 1227947, 20 h
Protocol: as §1

[2] = test system: Gram-negative ESKAPE pathogens; type: cell-based; conditions: 20 h
Protocol: as §1

P. aeruginosa PAO1 = type: cell-based, Pseudomonas aeruginosa; conditions: PAO1, 20 h
Protocol: as §1

P. aeruginosa 1226072 = type: cell-based, Pseudomonas aeruginosa; conditions: 1226072, 20 h
Protocol: as §1

P. aeruginosa 1218019 = type: cell-based, Pseudomonas aeruginosa; conditions: 1218019, 20 h
Protocol: as §1

A. baumannii IHMA 777621 = type: cell-based, Acinetobacter baumannii; conditions: IHMA 777621, 20 h
Protocol: as §1

A. baumannii HUMC1 = type: cell-based, Acinetobacter baumannii; conditions: HUMC1, 20 h
Protocol: as §1

A. baumannii ATCC 17978 = type: cell-based, Acinetobacter baumannii; conditions: ATCC 17978, 20 h
Protocol: as §1

E. faecium ATCC 51559 = type: cell-based, Enterococcus faecium; conditions: ATCC 51559, 20 h
Protocol: as §1

E. faecium IHMA 890472 = type: cell-based, Enterococcus faecium; conditions: IHMA 890472, 20 h
Protocol: as §1

E. coli 1214245 = type: cell-based, Escherichia coli; conditions: 1214245, 20 h
Protocol: as §1

E. coli ATCC 25922 = type: cell-based, Escherichia coli; conditions: ATCC 25922, 20 h
Protocol: as §1

E. coli 1220120 = type: cell-based, Escherichia coli; conditions: 1220120, 20 h
Protocol: as §1

S. aureus ATCC 29213 = type: cell-based, Staphylococcus aureus; conditions: ATCC 29213, 20 h
Protocol: as §1

S. aureus UAMS-1625 = type: cell-based, Staphylococcus aureus; conditions: S. aureus UAMS-1625 (BV18); CLSI broth dilution, cation-adjusted Mueller Hinton broth, 20 h, 35 °C, read visually
Protocol: as §1

S. aureus 1126387 = type: cell-based, Staphylococcus aureus; conditions: 1126387, 20 h
Protocol: as §1

Row | Structure (SMILES) | IC50 on HepG2 w/o FCS (HepG2 cells) | MIC (ATCC 25922) | MIC (E. faecalis ATCC 29212) | Hemolysis EC50 (Rabbit red blood cells) | MIC (K. pneumoniae 1228586) | MIC (K. pneumoniae ATCC 13883) | MIC (K. pneumoniae 1227947) | MIC (P. aeruginosa PAO1) | MIC (P. aeruginosa 1226072) | MIC (P. aeruginosa 1218019) | MIC (A. baumannii IHMA 777621) | MIC (A. baumannii HUMC1) | MIC (A. baumannii ATCC 17978) | MIC (E. faecium ATCC 51559) | MIC (E. faecium IHMA 890472) | MIC (E. coli 1214245) | MIC (E. coli ATCC 25922) | MIC (E. coli 1220120) | MIC (S. aureus ATCC 29213) | MIC (S. aureus UAMS-1625) | other results
1 | CCCCCCCC(=O)N[C@@H](C(=O)N[C@H](CCN)C(=O)NCC(=O)N[C@H](CO)C(=O)N[C@H](Cc1c[nH]c2ccccc12)C(=O)N[C@@H](CO)C(=O)N[C@@H](CCN)C(=O)N[C@H](CCN)C(=O)N[C@@H](C)C(=O)N[C@@H](CCC(=O)O)C(=O)N[C@H](C(=O)N[C@@H](C(=O)N[C@@H](C)C(=O)O)[C@@H](C)CC)C(C)C)C(C)C [Oct-Ala9] (Octanoyl-[dV][dDab]G[dS][dW]S[Dab][dDab]AEV[d(aIle)]A-OH) | >128 µg/mL | >64 µg/mL | >64 µg/mL | >128 µg/mL | 8 µg/mL (≈ 5.54 µM) | 8 µg/mL (≈ 5.54 µM) | 16 µg/mL (≈ 11.1 µM) | 64 µg/mL (≈ 44.3 µM) | 32 µg/mL (≈ 22.1 µM) | >64 µg/mL | >64 µg/mL | >64 µg/mL | >64 µg/mL | >64 µg/mL | >64 µg/mL | 16 µg/mL (≈ 11.1 µM) | 16 µg/mL (≈ 11.1 µM) | 8 µg/mL (≈ 5.54 µM) | >64 µg/mL | >64 µg/mL | antibacterial activity against Gram-positive bacteria [1]: no antibacterial activity; MICs, range over Gram-negative pathogens [2]: 8 to 64 µg/mL; MIC (S. aureus 1126387): >64 µg/mL
2 | CCCCCCCC(=O)N[C@@H](C(=O)N[C@H](CCN)C(=O)NCC(=O)N[C@H](CO)C(=O)N[C@H](Cc1c[nH]c2ccccc12)C(=O)N[C@@H](CO)C(=O)N[C@@H](CCN)C(=O)N[C@H](CCN)C(=O)N[C@@H](CCN)C(=O)N[C@@H](CCC(=O)O)C(=O)N[C@H](C(=O)N[C@@H](C(=O)N[C@@H](C)C(=O)O)[C@@H](C)CC)C(C)C)C(C)C [Oct-Dab9] (Octanoyl-[dV][dDab]G[dS][dW]S[Dab][dDab][Dab]EV[d(aIle)]A-OH) | >128 µg/mL | >64 µg/mL | >64 µg/mL | >128 µg/mL | >64 µg/mL | >64 µg/mL | >64 µg/mL | >64 µg/mL | 8 µg/mL (≈ 5.43 µM) | >64 µg/mL | >64 µg/mL | >64 µg/mL | >64 µg/mL | >64 µg/mL | >64 µg/mL | >64 µg/mL | >64 µg/mL | >64 µg/mL | >64 µg/mL | >64 µg/mL | antibacterial activity against Gram-positive bacteria [1]: no antibacterial activity; MICs, range over Gram-negative pathogens [2]: 8 to 64 µg/mL; MIC (S. aureus 1126387): >64 µg/mL
3 | CCCCCCCC(=O)N[C@@H](C(=O)N[C@H](CCN)C(=O)NCC(=O)N[C@H](CO)C(=O)N[C@H](Cc1c[nH]c2ccccc12)C(=O)N[C@@H](CO)C(=O)N[C@@H](CCN)C(=O)N[C@H](CCN)C(=O)N[C@@H](CCC(=O)O)C(=O)N[C@@H](CCC(=O)O)C(=O)N[C@H](C(=O)N[C@@H](C(=O)N[C@@H](C)C(=O)O)[C@@H](C)CC)C(C)C)C(C)C [Oct-Glu9] (Octanoyl-[dV][dDab]G[dS][dW]S[Dab][dDab]EEV[d(aIle)]A-OH) | >128 µg/mL | >64 µg/mL | >64 µg/mL | >128 µg/mL | >64 µg/mL | >64 µg/mL | >64 µg/mL | >64 µg/mL | >64 µg/mL | >64 µg/mL | >64 µg/mL | >64 µg/mL | >64 µg/mL | >64 µg/mL | >64 µg/mL | >64 µg/mL | >64 µg/mL | 64 µg/mL (≈ 42.6 µM) | >64 µg/mL | >64 µg/mL | antibacterial activity against Gram-positive bacteria [1]: no antibacterial activity; MICs, range over Gram-negative pathogens [2]: 8 to 64 µg/mL; MIC (S. aureus 1126387): >64 µg/mL
4 | CCCCCCCC(=O)N[C@@H](C(=O)N[C@H](CCN)C(=O)NCC(=O)N[C@H](CO)C(=O)N[C@H](Cc1c[nH]c2ccccc12)C(=O)N[C@@H](CO)C(=O)N[C@@H](CCN)C(=O)N[C@H](CCN)C(=O)N[C@H](C(=O)N[C@@H](CCC(=O)O)C(=O)N[C@H](C(=O)N[C@@H](C(=O)N[C@@H](C)C(=O)O)[C@@H](C)CC)C(C)C)C(C)C)C(C)C [Oct-Val9] (Octanoyl-[dV][dDab]G[dS][dW]S[Dab][dDab]VEV[d(aIle)]A-OH) | >128 µg/mL | >64 µg/mL | 64 µg/mL (≈ 43.5 µM) | >128 µg/mL | 8 µg/mL (≈ 5.43 µM) | 2 µg/mL (≈ 1.36 µM) | 8 µg/mL (≈ 5.43 µM) | 64 µg/mL (≈ 43.5 µM) | 16 µg/mL (≈ 10.9 µM) | 16 µg/mL (≈ 10.9 µM) | 32 µg/mL (≈ 21.7 µM) | 32 µg/mL (≈ 21.7 µM) | 32 µg/mL (≈ 21.7 µM) | 64 µg/mL (≈ 43.5 µM) | >64 µg/mL | 4 µg/mL (≈ 2.72 µM) | 4 µg/mL (≈ 2.72 µM) | 4 µg/mL (≈ 2.72 µM) | >64 µg/mL | >64 µg/mL | MIC (S. aureus 1126387): >64 µg/mL

— PMC11106739, “Discovery and Derivatization of Tridecaptin Antibiotics with Altered Host Specificity and Enhanced Bioactivity” (ACS Chemical Biology, 2024)
